Test results: US20240101602A1, “ANTIMICROBIAL PEPTIDES AND METHOD OF PREVENTING OR TREATING INFECTION BY USING THE SAME” (priority 2020, published 2024)

Assays:
red blood cells = type: cell-based, rat
Description: Further, the hemolytic activity of the antimicrobial peptides was tested. EDTA-treated rat whole blood was centrifuged at 840×g for 3 minutes at 4° C. to separate blood cells and plasma. The plasma was removed, and the blood cells were washed three times with PBS having the same volume as the original blood volume by gently turning the centrifuge tube upside down. After washing, ten microliters of blood cells were diluted in PBS 2000 times to count the cells. Finally, red blood cells were diluted to 5×10^8 cells/mL in PBS. Peptides were dissolved in water and filtered through a 0.2-μm filter to make a stock solution. The peptide concentration was quantitated by UV280. The peptide solution was diluted in PBS to different concentrations (5 times of tested concentration). Twenty microliters of peptide in PBS were mixed with 80 μL of red blood cell solution in a 96-well plate (V-bottom). […] The concentration of heme contained in each well was measured by UV405 using Infinite M1000 pro (Tecan). The hemolytic activity was calculated using the following formula: Hemolytic activity=[(F−F0)/(Ft−F0)]×100% • F is UV405 of the peptide-treated sample; • F0 is UV405 of sample without peptide (negative control); • Ft is UV405 of the Triton-treated sample (positive control).

[1] = tested on: Pseudomonas syringae pv. syringae strain B728a; conditions: Pss B728a; Table 7
[2] = tested on: Pseudomonas aeruginosa ATCC 9027; conditions: ATCC 9027
[3] = tested on: Klebsiella pneumonia NTUH-K2044

Ac-WKKLKKLLKKL-NH2 [pepD3]
hemolytic activity (red blood cells): very little or non-hemolytic activity
MBC [1]: 16.0 µg/mL
MIC [1]: 10.0 µg/mL
MBC [2]: 8 µg/mL
MIC [2]: 4 µg/mL
MBC [3]: 16 µg/mL
MIC [3]: 16 µg/mL
